Experimental findings from patent US20180201592A1, “2-AMINO-1,3,4-THIADIAZINE AND 2-AMINO-1,3,4-OXADIAZINE BASED ANTIFUNGAL AGENTS” (F2G Limited, priority 2015, published 2018) are described below.

Broadly, the MIC is the lowest concentration that inhibits growth of the organism.

One test has as its system A. terreus 49. Description: Minimum inhibitory concentration, YAG medium. The class given is cell-based, Aspergillus terreus. As to conditions: banded MIC grade; for MIC: Aspergillus terreus, 49, YAG media. The essentials:
(§1)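 MIC in mg/L, from OD485 growth read-out after 24 hrs at 35° C in YAG medium with Aspergillus spores. Doubling dilutions in water made from a 5 mg/mL DMSO stock.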

The test system of the next test is Aspergillus fumigatus. Description: Minimum inhibitory concentration, YAG medium. Particulars: banded MIC grade; for MIC: Aspergillus fumigatus, YAG media. The class given is cell-based. The essentials: (§2)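 Broth microdilution in YAG medium; inoculum 1-2×10^4 cfu/mL; compound 50-0.05 mg/L in doubling steps, from DMSO stock. 24 h, 35° C. Read OD 485 nm; MIC = lowest conc. inhibiting growth >70% vs no-drug control, in mg/L.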

A further test deals with Aspergillus terreus. Description: Minimum inhibitory concentration, YAG medium. The test is classed as cell-based. Particulars: banded MIC grade; for MIC: Aspergillus terreus, YAG media. The essentials: as §1
The next test concerns Aspergillus flavus. The test is described as follows: Minimum inhibitory concentration, YAG medium. The class given is cell-based. Particulars: banded MIC grade; for MIC: Aspergillus flavus, YAG media. The essentials: as §1
The subject of another test is Aspergillus niger. The test is described as follows: Minimum inhibitory concentration, YAG medium. The class given is cell-based. Particulars: banded MIC grade; for MIC: Aspergillus niger, YAG media. The essentials: as §1
The subject of another test is A. fumigatus 210. Description: Minimum inhibitory concentration, YAG medium. The test is classed as cell-based, Aspergillus fumigatus. Particulars: banded MIC grade; for MIC: Aspergillus fumigatus, 210, YAG media. The essentials:
as §2

A further test has as its system C. parapsilosis. The test is described as follows: Minimum inhibitory concentration, RPMI medium. The class given is cell-based. As to conditions: banded MIC grade; for MIC: Lodderomyces parapsilosis, RPMI media. The essentials:
(§3)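 Growth was measured by OD at 485 nm after 24-48 hrs at 35° C in RPMI 1640 medium. Compound was serially diluted twofold in water, starting from a 5 mg/mL DMSO stock solution.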

The subject of the next test is C. tropicalis. Description: Minimum inhibitory concentration, RPMI medium. The class given is cell-based. As to conditions: banded MIC grade; for MIC: Candida tropicalis, RPMI media. The essentials: as §3
In a further test the test system is C. albicans. Description: Minimum inhibitory concentration, RPMI medium. Particulars: banded MIC grade; for MIC: Candida albicans, RPMI media. The test is classed as cell-based. The essentials:
as §3

Setting [1] is: read-out: MIC grade C. PARAPSILOSIS
Setting [2] is: read-out: MIC grade, C. PARAPSILOSIS, RPMI media.
[3] abbreviates: read-out: MIC grade C. ALBICANS
The mark [4] stands for this setting: read-out: MIC grade, C. ALBICANS, RPMI media.

Converted amounts (≈) assume the structure as drawn. Like-named read-outs stand apart in the source and are kept apart here.

As for `Cc1ccc(C2=CSC(N)=NN2C)cc1` [4-methyl-5-(p-tolyl)-1,3,4-thiadiazin-2-amine], the MIC was below 0.2 µg/mL with A. terreus 49; below 0.2 µg/mL in the test with Aspergillus fumigatus; below 0.2 µg/mL against Aspergillus terreus; 0.2 to 1 µg/mL (≈ 0.912 to 4.56 µM) against Aspergillus flavus; 0.2 to 1 µg/mL (≈ 0.912 to 4.56 µM) against Aspergillus niger; below 0.2 µg/mL in the test with A. fumigatus 210. The MIC in the test with C. parapsilosis (setting [1]) is at least 20 µg/mL; with C. parapsilosis (setting [2]), 1 to 5 µg/mL (≈ 4.56 to 22.8 µM); in the test on C. tropicalis, at least 20 µg/mL; with C. albicans (setting [3]) it was below 1 µg/mL; in the test with C. albicans (setting [4]), 5 to 20 µg/mL (≈ 22.8 to 91.2 µM).
Take `CN1N=C(N)SC=C1c1ccc(Cl)c(Cl)c1` [5-(3,4-dichlorophenyl)-4-methyl-1,3,4-thiadiazin-2-amine]: the MIC was 0.2 to 1 µg/mL (≈ 0.729 to 3.65 µM) against A. terreus 49; 1 to 5 µg/mL (≈ 3.65 to 18.2 µM) against Aspergillus fumigatus; 1 to 5 µg/mL (≈ 3.65 to 18.2 µM) against Aspergillus terreus; at least 5 µg/mL against Aspergillus flavus; 1 to 5 µg/mL (≈ 3.65 to 18.2 µM) in the test on Aspergillus niger; 1 to 5 µg/mL (≈ 3.65 to 18.2 µM) with A. fumigatus 210. Besides, the MIC with C. parapsilosis (setting [1]) is at least 20 µg/mL; in the test with C. parapsilosis (setting [2]), at least 20 µg/mL; in the test on C. tropicalis, at least 20 µg/mL; in the test with C. albicans (setting [3]) it was 5 to 20 µg/mL (≈ 18.2 to 72.9 µM); with C. albicans (setting [4]), at least 20 µg/mL.
Consider `CCCCOc1ccc(C2=CSC(N)=NN2C)cc1` [5-(4-butoxyphenyl)-4-methyl-1,3,4-thiadiazin-2-amine], for which the minimum inhibitory concentration (MIC) with A. terreus 49 was 0.2 to 1 µg/mL (≈ 0.721 to 3.6 µM); against Aspergillus fumigatus it was below 0.2 µg/mL; in the test on Aspergillus terreus it was 0.2 to 1 µg/mL (≈ 0.721 to 3.6 µM); against Aspergillus flavus, below 0.2 µg/mL; against Aspergillus niger, below 0.2 µg/mL; with A. fumigatus 210 it was below 0.2 µg/mL. In addition, the MIC in the test on C. parapsilosis (setting [1]) was below 1 µg/mL; in the test with C. parapsilosis (setting [2]), 1 to 5 µg/mL (≈ 3.6 to 18 µM); in the test on C. tropicalis, 1 to 5 µg/mL (≈ 3.6 to 18 µM); with C. albicans (setting [3]) it was 1 to 5 µg/mL (≈ 3.6 to 18 µM); in the test on C. albicans (setting [4]), at least 20 µg/mL.
Regarding `CN1N=C(N)SC=C1c1ccc(Cl)cc1` [5-(4-chlorophenyl)-4-methyl-1,3,4-thiadiazin-2-amine], the MIC in the test with A. terreus 49, in the test on Aspergillus fumigatus, with Aspergillus terreus, against Aspergillus flavus, with Aspergillus niger and with A. fumigatus 210 was below 0.2 µg/mL each time. In addition, the MIC with C. parapsilosis (setting [1]) was below 1 µg/mL; in the test on C. parapsilosis (setting [2]) it was below 1 µg/mL; against C. tropicalis it was 5 to 20 µg/mL (≈ 20.9 to 83.4 µM); in the test with C. albicans (setting [3]) it was 1 to 5 µg/mL (≈ 4.17 to 20.9 µM); in the test on C. albicans (setting [4]) it was 1 to 5 µg/mL (≈ 4.17 to 20.9 µM).
Turning to `COc1ccc(C2=CSC(N)=NN2C)cc1` [5-(4-methoxyphenyl)-4-methyl-1,3,4-thiadiazin-2-amine], the MIC in the test with A. terreus 49, in the test on Aspergillus fumigatus, against Aspergillus terreus, against Aspergillus flavus, in the test with Aspergillus niger and with A. fumigatus 210 was below 0.2 µg/mL throughout. Besides, the minimum inhibitory concentration (MIC) in the test on C. parapsilosis (setting [1]) is below 1 µg/mL; in the test on C. parapsilosis (setting [2]) it was below 1 µg/mL; in the test with C. tropicalis it was 1 to 5 µg/mL (≈ 4.25 to 21.2 µM); with C. albicans (setting [3]) it was below 1 µg/mL; in the test with C. albicans (setting [4]) it was below 1 µg/mL.
In the case of `CN1N=C(N)SC=C1c1cc2ccccc2o1` [5-(benzofuran-2-yl)-4-methyl-1,3,4-thiadiazin-2-amine], the minimal inhibitory concentration (MIC) fell in the range of 0.2 to 1 µg/mL (≈ 0.815 to 4.08 µM) in the test with A. terreus 49; 1 to 5 µg/mL (≈ 4.08 to 20.4 µM) against Aspergillus fumigatus; 0.2 to 1 µg/mL (≈ 0.815 to 4.08 µM) with Aspergillus terreus; 1 to 5 µg/mL (≈ 4.08 to 20.4 µM) against Aspergillus flavus; 1 to 5 µg/mL (≈ 4.08 to 20.4 µM) with Aspergillus niger; 0.2 to 1 µg/mL (≈ 0.815 to 4.08 µM) against A. fumigatus 210. The MIC was 5 to 20 µg/mL (≈ 20.4 to 81.5 µM) with C. parapsilosis (setting [1]); at least 20 µg/mL in the test on C. parapsilosis (setting [2]); at least 20 µg/mL against C. tropicalis; 5 to 20 µg/mL (≈ 20.4 to 81.5 µM) in the test with C. albicans (setting [3]); at least 20 µg/mL in the test with C. albicans (setting [4]).
In the case of `CCCCCCCC1=CSC(N)=NN1` [5-heptyl-4~{H}-1,3,4-thiadiazin-2-amine], the “MIC grade, A. TERREUS 49, YAG media” value with A. terreus 49 is 3 (3: 0.2-1 mg/L). For the same compound, the “MIC grade, A. FUMIGATUS, YAG media” value against Aspergillus fumigatus is 4 (4: <0.2 mg/L). The “MIC grade, A. TERREUS, YAG media” value against Aspergillus terreus is given as 4 (4: <0.2 mg/L). In the test on Aspergillus flavus, the “MIC grade, A. FLAVUS, YAG media” value is given as 4 (4: <0.2 mg/L). In the test with Aspergillus niger, the “MIC grade, A. NIGER, YAG media” value is on record as 4 (4: <0.2 mg/L). For the same compound, the “MIC grade, A. FUMIGATUS 210, YAG media” value against A. fumigatus 210 was 4 (4: <0.2 mg/L). The “MIC grade, C. PARAPSILOSIS, RPMI media” value with C. parapsilosis was 3 (3: 1-5 mg/L). In the test with C. tropicalis, the “MIC grade, C. TROPICALIS, RPMI media” value is listed as 3 (3: 1-5 mg/L). Further, the “MIC grade, C. ALBICANS, RPMI media” value in the test with C. albicans is reported as 3 (3: 1-5 mg/L).
On to `NC1=NN=C(c2ccccc2)CS1` [5-phenyl-6~{H}-1,3,4-thiadiazin-2-amine], for which the “MIC grade, A. TERREUS 49, YAG media” value against A. terreus 49 was 3 (3: 0.2-1 mg/L). The “MIC grade, A. FUMIGATUS, YAG media” value in the test on Aspergillus fumigatus is 3 (3: 0.2-1 mg/L). For the same compound, in the test on Aspergillus terreus, the “MIC grade, A. TERREUS, YAG media” value is 3 (3: 0.2-1 mg/L). Moreover, the “MIC grade, A. FLAVUS, YAG media” value with Aspergillus flavus is reported as 3 (3: 0.2-1 mg/L). Also, the “MIC grade, A. NIGER, YAG media” value against Aspergillus niger was 3 (3: 0.2-1 mg/L). In addition, the “MIC grade, A. FUMIGATUS 210, YAG media” value against A. fumigatus 210 is 3 (3: 0.2-1 mg/L). Also, in the test on C. parapsilosis, the “MIC grade, C. PARAPSILOSIS, RPMI media” value was 1 (1: ≥20 mg/L). Further, in the test on C. tropicalis, the “MIC grade, C. TROPICALIS, RPMI media” value is reported as 1 (1: ≥20 mg/L). The “MIC grade, C. ALBICANS, RPMI media” value against C. albicans is 1 (1: ≥20 mg/L).
